# Where two headings read alike, the source gives them in different places.
# How the values were obtained:
# [1] = tested on: rabbit plasma-rich platelets (PRP); test: Inhibition of PAF Acether-induced PA, rabbit PRP in vitro; type: cell-based; conditions: Oryctolagus cuniculus, Platelet, average of 10 assays, read-out: IC50 doses on PAF Acether-induced rabbit PA (PRP)
# Procedure: The Inhibition of PAF Acether-induced PA has been studied on rabbit plasma-rich platelets (PRP). Two doses of PAF Acether were used (2.5 nM and 5 nM). The tested compound was added to the medium 3 minutes before PAF Acether and aggregation was followed by monitoring changes in electrical impedance (Whole-Blood aggregometer-chrono-Log); kadsurenone was simultaneously tested as reference compound and the IC50 molar doses of Ginkgolides A, B, C and M and of kadsurenone on PAF Acether-induced rabbit PA (PRP) have been calculated.
# The results obtained are presented in the following table (average values for 10 assays for each dose) and FIG. 1: […]
# [2] = tested on: guinea-pig mesenteric artery; test: Opto-electronic follow-up of PAF Acether-induced thrombus, guinea-pig mesenteric artery; type: in vivo
# Excerpt: In this experimental study, 20 guinea-pigs were used. […] Briefly summarized, this method consists in the dissection over a distance of 2 to 3 mm of a branch of the mesenteric artery following gently extraction of a loop of small intestine. By transillumination, the image of this arterial segment is projected onto a set of 30 light-depending resistances (LDR) arranged in two columns of 15 elements each. An LDR element has the property to change its internal resistance as a function of a variation of light intensity. Each LDR is connected into its own Wheatstone bridge, and the changes in light intensity due to thrombus formation will be recorded as variations in electrical potentials and registered as such via a multiplexing device.
# In the present investigation, several discriminating parameters are recorded: (a) the t1 interval or the lag period (this is the time interval between the beginning of the PAF Acether superfusion and the first signs of thrombus formation; (b) the td interval is the duration of the thrombotic phenomenon; (c) the O(t) curve indicates the number of LDR elements covered by the thrombus image; (d) the D(t) curve represents during each 30×1/9×10^-2 sec interval the greatest potential deviation on one of the LDR elements covered by the thrombus image; (e) the T(t) curve represents the summation of the potentials registered on the LDR elements during a time interval of 30×1/9×10^-2 sec the TTV(t) curve results from the integration of the T(t) values in function of time; (f) mD, mT, and mO correspond to the maximal values registered on, respectively, the D(t), T(t), and O(t) curves; (g) TTV is the maximal value of the TTV(t) curve, whereas TVM is the value of this curve up to the point where mT is reached.
# In a first series of experiments (10 animals) the effect of local superfusion with PAF Acether (10^-4 M) is investigated.
# In a second series of experiments (10 animals) the effects of Ginkgolide B and of kadsurenone have been compared preventively and curatively.
# [3] = tested on: rabbit platelets; test: Ex vivo PAF Acether-induced rabbit PA after per os or IV administration; type: in vivo; conditions: for activity at 0.5 mg/kg / activity at 1 mg/kg / activity at 2 mg/kg: Oryctolagus cuniculus, Platelet, iv, read-out: PAF Acether-induced rabbit PA (% of control); for activity at 0.5 mg/kg: IV 0.5 mg/kg; for activity at 1 mg/kg: IV 1 mg/kg; for activity at 2 mg/kg: IV 2 mg/kg
# Procedure: Drugs were administered per os (2,5 and 10 mg/kg) or by IV route (0.5, 1, 2 mg/kg) and blood samples were taken at different times to test platelet aggregation with PAF-Acether ([…]) (see following table wherein the figures appearing are the ratio to the control with the solvent used, i.e. DMSO).
# [4] = tested on: New-Zealand rabbits; test: PAF Acether-induced shock in the rabbit; type: in vivo; conditions: for Extravasation (O.D.): 2 mg/kg IV perfusion, 30 mn, optical density at 590 nm, average of 10 animals
# Procedure: Treatment: Tested compounds (Gingkolides A, B and C) or vehicle were perfused in the ear vein in 45 ml NaCl 0.9% for 1 hour before PAF Acether injection. Vehicle consisted of 1.5 ml of propylene glycol completed to 45 ml by isotonic NaCl buffer; Ginkgolides were administered at the dose of 2 mg/kg IV; the figures reported in the following table are the average values of the 10 animals of each batch.
# [5] = tested on: guinea-pig isolated heart; test: Isolated Langendorff heart, PAF Acether effect; conditions: PAF Acether 100 pM
# Excerpt: The deletereous effect of PAF Acether on Isolated Langendorff heart has been previously described by J. BENVENISTE, C. BOULLET, C. BRINK and C. LABAT, Brit. J. Pharmacol, The action of PAF Acether on guinea-pig isolated heart preparation, 80: 81-3 (1983).
# PAF Acether (100 pM) induced a decline in contractile strength (-30%) and a decrease of coronary flow (-50%).
# This effect was dose-dependent (disappearance of protective activity when dose ≤10^-7 M).
# [6] = 0.5 h, PAF Acether 2.5 nM, 0.5 h
# [7] = 0.5 h, PAF Acether 5.0 nM, 0.5 h
# [8] = 2 mg/kg IV, PAF Acether 2 and 4 nmol/kg, 10 animals per batch
smiles,measurement,setting,value
CC1C(=O)OC2C(O)C34C5CC(C(C)(C)C)C36C(OC(=O)C6O)OC4(C(=O)O5)C12O (stereo not drawn) [Ginkgolide B],IC50,[1]; PAF Acether 2.5 nM,1880 nM
same,IC50,[1]; PAF Acether 5 nM,3200 nM
same,thrombus formation when superfused with PAF Acether (preventive),[2]; PAF Acether superfusion,no thrombus appeared
same,time for disappearance of pre-formed thrombus (curative),[2]; PAF Acether-induced thrombus,2.30 min
same,activity at 0.5 mg/kg,[3]; [6],0%
same,activity at 0.5 mg/kg,[3]; [7],0%
same,activity at 1 mg/kg,[3]; [6],0%
same,activity at 1 mg/kg,[3]; [7],0%
same,activity at 2 mg/kg,[3]; [6],0%
same,activity at 2 mg/kg,[3]; [7],0%
same,activity at 0.5 mg/kg,"[3]; 1 h, PAF Acether 2.5 nM, 1 h",7.4%
same,activity at 0.5 mg/kg,"[3]; 1 h, PAF Acether 5.0 nM, 1 h",9.4%
same,activity at 1 mg/kg,"[3]; 1 h, PAF Acether 2.5 nM, 1 h",0%
same,activity at 1 mg/kg,"[3]; 1 h, PAF Acether 5.0 nM, 1 h",1.1%
same,activity at 2 mg/kg,"[3]; 1 h, PAF Acether 2.5 nM, 1 h",0%
same,activity at 2 mg/kg,"[3]; 1 h, PAF Acether 5.0 nM, 1 h",0%
same,activity at 0.5 mg/kg,"[3]; 2 h, PAF Acether 2.5 nM, 2 h",11.2%
same,activity at 0.5 mg/kg,"[3]; 2 h, PAF Acether 5.0 nM, 2 h",14.5%
same,activity at 1 mg/kg,"[3]; 2 h, PAF Acether 2.5 nM, 2 h",4.1%
same,activity at 1 mg/kg,"[3]; 2 h, PAF Acether 5.0 nM, 2 h",7.2%
same,activity at 2 mg/kg,"[3]; 2 h, PAF Acether 2.5 nM, 2 h",0%
same,activity at 2 mg/kg,"[3]; 2 h, PAF Acether 5.0 nM, 2 h",0%
same,PAF Acether-induced rabbit PA (% of control),"[3]; per os 2 mg/kg, PAF Acether 2.5 nM, 0.5 h",23%
same,PAF Acether-induced rabbit PA (% of control),"[3]; per os 2 mg/kg, PAF Acether 2.5 nM, 1 h",37%
same,PAF Acether-induced rabbit PA (% of control),"[3]; per os 2 mg/kg, PAF Acether 2.5 nM, 2 h",54%
same,PAF Acether-induced rabbit PA (% of control),"[3]; per os 2 mg/kg, PAF Acether 5.0 nM, 0.5 h",34.5%
same,PAF Acether-induced rabbit PA (% of control),"[3]; per os 2 mg/kg, PAF Acether 5.0 nM, 1 h",47.8%
same,PAF Acether-induced rabbit PA (% of control),"[3]; per os 2 mg/kg, PAF Acether 5.0 nM, 2 h",71.2%
same,PAF Acether-induced rabbit PA (% of control),"[3]; per os 5 mg/kg, PAF Acether 2.5 nM, 1 h",7%
same,PAF Acether-induced rabbit PA (% of control),"[3]; per os 5 mg/kg, PAF Acether 2.5 nM, 2 h",10%
same,PAF Acether-induced rabbit PA (% of control),"[3]; per os 5 mg/kg, PAF Acether 5.0 nM, 0.5 h",6%
same,PAF Acether-induced rabbit PA (% of control),"[3]; per os 5 mg/kg, PAF Acether 5.0 nM, 1 h",11.4%
same,PAF Acether-induced rabbit PA (% of control),"[3]; per os 5 mg/kg, PAF Acether 5.0 nM, 2 h",27.1%
same,Extravasation (O.D.),[4]; PAF Acether 2 nmol/kg,0.827 O.D.
same,Extravasation (O.D.),[4]; PAF Acether 4 nmol/kg,0.880 O.D.
same,Behaviour: behavioural modifications,[4]; [8],No behavioural
same,Behaviour: deaths,[4]; [8],No death
same,inhibition of PAF Acether-induced decline in contractile strength and decrease of coronary flow,[5]; 2.10^-4 M,totally inhibited
same,dose at which protective activity disappears,[5],≤ 10^-7 M

# — patent US4734280A, “Treatment or prevention of PAF Acether-induced maladies” (priority 1984, dated 1988)
